The values below come from PubChem BioAssay (NCI).

Holding throughout (assay): growth of human tumour cells (NCI), 48 h
Experiment [1] concerns 786-0 renal.
Experiment [2] has as its system MOLT-4 leukemia.
Experiment [3] relates to UACC-257 melanoma.
Experiment [4] has as its system MALME-3M melanoma.
Experiment [5] relates to RXF 393 renal.
Experiment [6] concerns SW-620 colon.
Experiment [7] deals with SF-539 CNS.
The test system of experiment [8] is HCT-116 colon.
For experiment [9], the system named is TK-10 renal.

“And” between values parts separate entries of the source, which are not always exact repeats. Equal values may be shown once.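 Five compound concentrations were applied to cells in 96-well plates for 48 hours; endpoints were derived by simple linear interpolation of the resulting dose-response curve. GI50 is the concentration that inhibits growth by half. TGI: total growth inhibition.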 Bounds are passed on as bounds.

Turning to `CN(C)c1nc(=Nc2ccc(N=c3nc(N(C)C)ss3)cc2)ss1`, the TGI in experiment [1] is above 100 µM; in [2] it was 51.3 µM; in experiment [3] it was above 91.4 µM; in experiment [4], 51.4 µM; in [5] it was 41.4 µM; in experiment [6], above 65.9 µM. Further, the TGI is above 100 µM in [7], 34.1 µM in experiment [8] and above 31.6 µM in experiment [9].

Turning to `COC(=O)C1=C(C)NC(C)=C(C(=O)OCCCN2CCC(c3ccccc3)(c3ccccc3)CC2)C1c1cccc([N+](=O)[O-])c1` (centres undefined), the TGI in experiment [1] is 2.99 µM; in experiment [2], 10 µM; in experiment [3] it was 3.1 µM; in experiment [4] it was 3.66 µM; in experiment [5], 3.43 µM; in experiment [6] it was 3.75 µM. Besides, the TGI in experiment [7] worked out at 3.27 µM; in experiment [8] it was 2.86 µM; in experiment [9], 7.34 µM.

With `COC(OC)C(C)CC(=O)N(C)C` (centres undefined), the TGI in [1], in experiment [2], in experiment [6], in [7], in [8] and in [9] was above 100 µM each time.

As for `C#CC1(O)CCC2C3CCc4cc(Oc5nc(F)nc(-c6c7ccccc7c7sc8ccccc8n67)n5)ccc4C3CC[C@@]21C` (some centres undefined), the TGI in [1], in experiment [2], in [3], in experiment [4], in experiment [6] and in experiment [7] was above 100 µM throughout. The TGI in experiment [8] and in experiment [9] was above 100 µM each time.

Consider `CCN1c2ccccc2C(C(SC)S(=O)(=O)c2ccc(C)cc2)c2c1[nH]c(=O)n(C)c2=O` (centres undefined), for which the TGI in experiment [1], in experiment [2], in [3], in experiment [4], in experiment [6] and in experiment [7] was above 100 µM throughout. Further, the TGI in experiment [8] and in experiment [9] was above 100 µM throughout.

On to `C/C(=N\NC(=S)NC(CCC(=O)O)C(=O)O)c1ccccn1` (centres undefined), for which the TGI in experiment [1], in experiment [2], in [3], in experiment [4], in [5] and in [6] was above 100 µM throughout. Also, the TGI in experiment [7], in experiment [8] and in experiment [9] was above 100 µM throughout.

In the case of `CCOC(=O)NC(=O)c1cn(CCCO)c(=O)[nH]c1=O`, the TGI in experiment [1], in experiment [2], in experiment [3], in [4], in experiment [6] and in experiment [7] was above 100 µM in each case. The TGI in experiment [8] and in experiment [9] was above 100 µM throughout.

On to `CCN(CC)/C(SCc1ccccc1)=C(\C(Cl)=C(Cl)Cl)[N+](=O)[O-]`, for which the TGI in experiment [1] was found to be 30.2 µM; in experiment [2], 44.5 µM; in experiment [3] it was 31.8 µM; in experiment [4], 21.8 µM; in experiment [5], 26.6 µM; in experiment [6] it was 50.4 µM. Further, the TGI came out at 39.4 µM in experiment [7], 28.2 µM in [8] and 33.3 µM in experiment [9].

With `CC1=CC(O)(c2ccc(-c3ccccc3Cl)cc2)OC1=O` (centres undefined), the TGI in experiment [1], in experiment [2], in [3], in experiment [4], in [5] and in experiment [6] was above 100 µM each time. In addition, the TGI in experiment [7] and in experiment [9] was above 100 µM throughout.

`CC1(C)C2CCC(=O)C1CC2` (centres undefined): the TGI in experiment [1], in [2], in experiment [3], in experiment [4], in [5] and in experiment [6] was above 100 µM throughout. Moreover, the TGI in experiment [7], in experiment [8] and in experiment [9] was above 100 µM each time.

As for `C[Si](C)(C)C1(Sc2ccccc2)SCCCS1`, the TGI in experiment [1] is above 100 µM; in experiment [2] it was 85.1 µM; in experiment [3], above 100 µM; in experiment [4], above 100 µM; in experiment [5] it was above 100 µM; in experiment [6] it was above 100 µM. The figures for the TGI in [7], in experiment [8] and in experiment [9] were 75.2 µM, above 100 µM and above 100 µM, respectively.

As for `Clc1ccc(C(c2ccc(Cl)cc2)c2ccccn2)cc1`, the TGI in [1] was found to be 30.6 µM; in experiment [2], 56.6 µM; in [3] it was 37.9 µM; in experiment [4], 41.2 µM; in [5] it was 28.2 µM; in experiment [6], 44 µM. In addition, the TGI was determined as 33.7 µM in experiment [7] and 45.3 µM in experiment [9].

On to `Brc1ccccc1C1SCc2nc3ccccc3n21` (centres undefined), for which the TGI is 29.4 µM in experiment [1]; above 100 µM in [2]; 48 µM in [4]; 23.3 µM in [5]; above 100 µM in experiment [6]; 33 µM in experiment [7]. The TGI in experiment [8] came out at 26 µM; in [9], 49.3 µM.

With `O=C(/C=C\c1ccc(Cl)c(Cl)c1)c1ccc(Cl)cc1Cl`, the TGI in experiment [1] is 39.6 µM; in experiment [2], 7.86 µM and 48.4 µM; in experiment [3], 36.5 µM; in [4] it was 35.5 µM; in experiment [5], 39.7 µM; in experiment [6], 8.47 µM and 18.9 µM. Also, the TGI is 37.7 µM in experiment [7] and above 100 µM in experiment [8]. The GI50 in experiment [8] is 2.68 µM.

On to `CCOC(=O)CC(=O)ON(C)C(C)=O`, for which the TGI in experiment [1], in experiment [2], in experiment [3], in experiment [4], in experiment [6] and in experiment [7] was above 100 µM in each case. The TGI in experiment [8] and in experiment [9] was above 100 µM throughout.

Consider `CC(C)=Cc1cc(C(=O)Nc2ccc(Cl)c(Cl)c2)nc(N)n1`, for which the TGI in [1], in experiment [2], in experiment [3], in [4], in experiment [5] and in experiment [6] was above 100 µM in each case. The TGI in experiment [7], in [8] and in experiment [9] was above 100 µM in each case.
